US10105357B2, “Indication of antibiotic drugs for preparation of cancer inhibition pharmaceutical composition” (LAUNX BIOMEDICAL CO., LTD., priority 2014, dated 2018)
Like-named read-outs stand apart in the source and are kept apart here.

Experiments:
[1] = system: NIH: OVCAR-3; test: Cell viability analysis, ovarian cancer NIH: OVCAR-3; type: cell-based, human; conditions: Homo sapiens, OVCAR-3, 72 h, read-out: The results of antibiotic drug inhibiting cancer cell lines (cell viability analysis), NIH-OVCAR-3
[2] = system: HI650 (Lung Adenocarcinoma); test: Cell viability analysis, lung cancer HI650; type: cell-based, human; conditions: Homo sapiens, NCI-H1650, 72 h
[3] = system: LoVo (Colorectal Adenocarcinoma); test: Cell viability analysis, colon cancer LoVo; type: cell-based, human; conditions: Homo sapiens, LoVo, 72 h
[4] = system: AsPC-1; test: Cell viability analysis, pancreatic cancer AsPC-1; type: cell-based, human; conditions: Homo sapiens, ASPC1, 72 h, read-out: The results of antibiotic drug inhibiting cancer cell lines (cell viability analysis), AsPC-1
[5] = system: A549 (Lung Adenocarcinoma); test: Cell viability analysis, lung cancer A549; type: cell-based, human; conditions: Homo sapiens, A549, 72 h
[6] = system: A375 (Amelanotic Melanoma); test: Cell viability analysis, skin cancer A375; type: cell-based, human; conditions: Homo sapiens, A-375, 72 h
[7] = system: HeLa (Cervix Adenocarcinoma); test: Cell viability analysis, cervical cancer HeLa; type: cell-based, human; conditions: Homo sapiens, HeLa, 72 h
[8] = system: C-33A (Cervical carcinoma); test: Cell viability analysis, cervical cancer C-33A; type: cell-based, human; conditions: Homo sapiens, C-33-A, 72 h, read-out: The results of antibiotic drug inhibiting cancer cell lines (cell viability analysis), C-33A
[9] = system: U-2OS; test: Cell viability analysis, osteosarcoma U-2OS; type: cell-based, human; conditions: Homo sapiens, U2OS, 72 h, read-out: The results of antibiotic drug inhibiting cancer cell lines (cell viability analysis), U2OS
[10] = system: T24; test: Cell viability analysis, bladder cancer T24; type: cell-based, human; conditions: Homo sapiens, T-24, 72 h, read-out: The results of antibiotic drug inhibiting cancer cell lines (cell viability analysis), T24
[11] = system: AGS (Gastric Adenocarcinoma); test: Cell viability analysis, gastric cancer AGS; type: cell-based, human; conditions: Homo sapiens, 72 h
[12] = system: SAS (Tongue squamous cell carcinoma); test: Cell viability analysis, tongue cancer SAS; type: cell-based, human; conditions: Homo sapiens, 72 h, read-out: The results of antibiotic drug inhibiting cancer cell lines (cell viability analysis), SAS
[13] = system: 786-O (Renal adenocarcinoma); test: Cell viability analysis, renal cancer 786-O; type: cell-based, human; conditions: Homo sapiens, 786-0, 72 h, read-out: The results of antibiotic drug inhibiting cancer cell lines (cell viability analysis), 786-O
[14] = system: BxPC-3; test: Cell viability analysis, pancreatic cancer BxPC-3; type: cell-based, human; conditions: Homo sapiens, BXPC-3, 72 h, read-out: The results of antibiotic drug inhibiting cancer cell lines (cell viability analysis), BxPC-3
[15] = system: TSGH-8301 (Urinary Bladder Carcinoma); test: Cell viability analysis, bladder cancer TSGH-8301; type: cell-based, human; conditions: Homo sapiens, 72 h
[16] = system: Hep3B (hepatocellular carcinoma); test: Cell viability analysis, hepatic cancer Hep3B; type: cell-based, human; conditions: Homo sapiens, Hep3B, 72 h, read-out: The results of antibiotic drug inhibiting cancer cell lines (cell viability analysis), Hep3B
[17] = system: BCC (basal cell carcinoma); test: Cell viability analysis, skin cancer BCC; type: cell-based, human; conditions: Homo sapiens, 72 h, read-out: The results of antibiotic drug inhibiting cancer cell lines (cell viability analysis), BCC
[18] = system: TOV-21G; test: Cell viability analysis, ovarian cancer TOV-21G; type: cell-based, human; conditions: Homo sapiens, TOV21G, 72 h, read-out: The results of antibiotic drug inhibiting cancer cell lines (cell viability analysis), TOV-21G
[19] = system: PC3 (p53−) (Prostate Adenocarcinoma); test: Cell viability analysis, prostate cancer PC3; type: cell-based, human; conditions: Homo sapiens, 72 h
[20] = system: MDA-MB-231 (Mammary Gland, Adenocarcinoma); test: Cell viability analysis, breast cancer MDA-MB-231; type: cell-based, human; conditions: Homo sapiens, MDA-MB-231, 72 h, read-out: The results of antibiotic drug inhibiting cancer cell lines (cell viability analysis), MDA-MB231
[21] = system: MCF7 (Mammary Gland, Adenocarcinoma); test: Cell viability analysis, breast cancer MCF7; type: cell-based, human; conditions: Homo sapiens, MCF7, 72 h
[22] = system: HCT116 (p53+) (Colorectal Carcinoma)
[23] = system: HL-60 (Acute Promyelocytic Leukemia); test: Cell viability analysis, leukemia HL-60; type: cell-based, human; conditions: Homo sapiens, HL-60, 72 h, read-out: cell viability (survival rate), HL-60, drug 10 μM, 72 hours, WST-1, OD450 nm
[24] = system: MKN-45 (Gastric Adenocarcinoma); test: Cell viability analysis, gastric cancer MKN-45; type: cell-based, human; conditions: Homo sapiens, MKN-45, 72 h
[25] = read-out: The results of antibiotic drug inhibiting cancer cell lines (cell viability analysis), H1650, H1650, repeated experiment
[26] = read-out: cell viability (survival rate), H1650, drug 10 μM, 72 hours, WST-1, OD450 nm
[27] = read-out: The results of antibiotic drug inhibiting cancer cell lines (cell viability analysis), LoVo, repeated experiment
[28] = read-out: cell viability (survival rate), LoVo, drug 10 μM, 72 hours, WST-1, OD450 nm
[29] = read-out: The results of antibiotic drug inhibiting cancer cell lines (cell viability analysis), A549, A549, repeated experiment
[30] = read-out: cell viability (survival rate), A549, drug 10 μM, 72 hours, WST-1, OD450 nm
[31] = read-out: The results of antibiotic drug inhibiting cancer cell lines (cell viability analysis), A375, A375, repeated experiment
[32] = read-out: cell viability (survival rate), A375, drug 10 μM, 72 hours, WST-1, OD450 nm
[33] = read-out: The results of antibiotic drug inhibiting cancer cell lines (cell viability analysis), HeLa, repeated experiment
[34] = read-out: cell viability (survival rate), HeLa, drug 10 μM, 72 hours, WST-1, OD450 nm
[35] = read-out: The results of antibiotic drug inhibiting cancer cell lines (cell viability analysis), AGS, repeated experiment
[36] = read-out: cell viability (survival rate), AGS, drug 10 μM, 72 hours, WST-1, OD450 nm
[37] = read-out: The results of antibiotic drug inhibiting cancer cell lines (cell viability analysis), TSGH-8301, TSGH-8301, repeated experiment
[38] = read-out: cell viability (survival rate), TSGH, drug 10 μM, 72 hours, WST-1, OD450 nm
[39] = read-out: The results of antibiotic drug inhibiting cancer cell lines (cell viability analysis), PC-3, PC-3, repeated experiment
[40] = read-out: cell viability (survival rate), PC3, drug 10 μM, 72 hours, WST-1, OD450 nm
[41] = read-out: The results of antibiotic drug inhibiting cancer cell lines (cell viability analysis), MCF-7, MCF-7, repeated experiment
[42] = read-out: cell viability (survival rate), MCF7, drug 10 μM, 72 hours, WST-1, OD450 nm
[43] = read-out: The results of antibiotic drug inhibiting cancer cell lines (cell viability analysis), MKN-45, MKN-45, repeated experiment
[44] = read-out: cell viability (survival rate), MKN-45, drug 10 μM, 72 hours, WST-1, OD450 nm

Clc1ccc(COC(Cn2ccnc2)c2ccc(Cl)cc2Cl)c(Cl)c1 (stereo not drawn) [Miconazole nitrate]
viability at 10 µM [1]: 94.8% | viability at 10 µM [2, 25]: 83.1% | viability at 10 µM [2, 26]: 68.8% | viability at 10 µM [3, 27]: 81.3% | viability at 10 µM [3, 28]: 62.1% | viability at 10 µM [4]: 75.5% | viability at 10 µM [5, 29]: 97.3% | viability at 10 µM [5, 30]: 37.3% | viability at 10 µM [6, 31]: 100% | viability at 10 µM [6, 32]: 31.5% | viability at 10 µM [7, 33]: 95.7% | viability at 10 µM [7, 34]: 57.6% | viability at 10 µM [8]: 117% | viability at 10 µM [9]: 64.2% | viability at 10 µM [10]: 77.7% | viability at 10 µM [11, 35]: 114% | viability at 10 µM [11, 36]: 51.1% | viability at 10 µM [12]: 69.6% | viability at 10 µM [13]: 75.2% | viability at 10 µM [14]: 65.3% | viability at 10 µM [15, 37]: 102% | viability at 10 µM [15, 38]: 41.8% | viability at 10 µM [16]: 126% | viability at 10 µM [17]: 80.7% | viability at 10 µM [18]: 80.6% | viability at 10 µM [19, 39]: 116% | viability at 10 µM [19, 40]: 30.4% | viability at 10 µM [20]: 107% | viability at 10 µM [21, 41]: 95.6% | viability at 10 µM [21, 42]: 50.7% | viability [22]: 122% | viability at 10 µM [23]: 41.4% | viability at 10 µM [24, 43]: 99.8% | viability at 10 µM [24, 44]: 45%

Clc1ccc(C(Cn2ccnc2)OCc2ccsc2Cl)c(Cl)c1 (stereo not drawn) [Tioconazole]
viability at 10 µM [1]: 92.5% | viability at 10 µM [2, 25]: 90.3% | viability at 10 µM [2, 26]: 72.9% | viability at 10 µM [3, 27]: 99.8% | viability at 10 µM [3, 28]: 83.2% | viability at 10 µM [4]: 80.1% | viability at 10 µM [5, 29]: 100% | viability at 10 µM [5, 30]: 47.6% | viability at 10 µM [6, 31]: 97.8% | viability at 10 µM [6, 32]: 60.9% | viability at 10 µM [7, 33]: 96.9% | viability at 10 µM [7, 34]: 58.5% | viability at 10 µM [8]: 114% | viability at 10 µM [9]: 92.4% | viability at 10 µM [10]: 88.8% | viability at 10 µM [11, 35]: 120% | viability at 10 µM [11, 36]: 82.7% | viability at 10 µM [12]: 93.6% | viability at 10 µM [13]: 75.6% | viability at 10 µM [14]: 69.2% | viability at 10 µM [15, 37]: 105% | viability at 10 µM [15, 38]: 68.1% | viability at 10 µM [16]: 120% | viability at 10 µM [17]: 87.8% | viability at 10 µM [18]: 78.5% | viability at 10 µM [19, 39]: 104% | viability at 10 µM [19, 40]: 40.7% | viability at 10 µM [20]: 103% | viability at 10 µM [21, 41]: 97.8% | viability at 10 µM [21, 42]: 48% | viability [22]: 103% | viability at 10 µM [23]: 57.1% | viability at 10 µM [24, 43]: 99.9% | viability at 10 µM [24, 44]: 61%

CC(NC(C)(C)C)C(=O)c1cccc(Cl)c1 (stereo not drawn) [Amfebutamone (Bupropion), Amfebutamone]
viability at 10 µM [1]: 109% | viability at 10 µM [2, 25]: 96% | viability at 10 µM [2, 26]: 74.3% | viability at 10 µM [3, 27]: 115% | viability at 10 µM [3, 28]: 51.4% | viability at 10 µM [4]: 84.3% | viability at 10 µM [5, 29]: 69.1% | viability at 10 µM [5, 30]: 59.2% | viability at 10 µM [6, 31]: 88.4% | viability at 10 µM [6, 32]: 88.2% | viability at 10 µM [7, 33]: 84.5% | viability at 10 µM [7, 34]: 53.4% | viability at 10 µM [8]: 107% | viability at 10 µM [9]: 92.3% | viability at 10 µM [10]: 99.6% | viability at 10 µM [11, 35]: 117% | viability at 10 µM [11, 36]: 30% | viability at 10 µM [12]: 110% | viability at 10 µM [13]: 103% | viability at 10 µM [14]: 79.6% | viability at 10 µM [15, 37]: 116% | viability at 10 µM [15, 38]: 44.9% | viability at 10 µM [16]: 82.1% | viability at 10 µM [17]: 77.5% | viability at 10 µM [18]: 97.5% | viability at 10 µM [19, 39]: 87.9% | viability at 10 µM [19, 40]: 62.8% | viability at 10 µM [20]: 80.3% | viability at 10 µM [21, 41]: 69% | viability at 10 µM [21, 42]: 64.7% | viability [22]: 78.3% | viability at 10 µM [23]: 118% | viability at 10 µM [24, 43]: 103% | viability at 10 µM [24, 44]: 52.1%
